# Assay results taken from patent US20100286139A1, “AMINO PYRAZOLE COMPOUND” (ELI LILLY AND COMPANY, priority 2008, published 2010).
# Biological target: T1, JAK3 (Homo sapiens, UniProt P52333)
# T1 construct: host or cells: NK-92 natural killer cells, IL-2-stimulated
# T1 sequence (P52333 1-1124): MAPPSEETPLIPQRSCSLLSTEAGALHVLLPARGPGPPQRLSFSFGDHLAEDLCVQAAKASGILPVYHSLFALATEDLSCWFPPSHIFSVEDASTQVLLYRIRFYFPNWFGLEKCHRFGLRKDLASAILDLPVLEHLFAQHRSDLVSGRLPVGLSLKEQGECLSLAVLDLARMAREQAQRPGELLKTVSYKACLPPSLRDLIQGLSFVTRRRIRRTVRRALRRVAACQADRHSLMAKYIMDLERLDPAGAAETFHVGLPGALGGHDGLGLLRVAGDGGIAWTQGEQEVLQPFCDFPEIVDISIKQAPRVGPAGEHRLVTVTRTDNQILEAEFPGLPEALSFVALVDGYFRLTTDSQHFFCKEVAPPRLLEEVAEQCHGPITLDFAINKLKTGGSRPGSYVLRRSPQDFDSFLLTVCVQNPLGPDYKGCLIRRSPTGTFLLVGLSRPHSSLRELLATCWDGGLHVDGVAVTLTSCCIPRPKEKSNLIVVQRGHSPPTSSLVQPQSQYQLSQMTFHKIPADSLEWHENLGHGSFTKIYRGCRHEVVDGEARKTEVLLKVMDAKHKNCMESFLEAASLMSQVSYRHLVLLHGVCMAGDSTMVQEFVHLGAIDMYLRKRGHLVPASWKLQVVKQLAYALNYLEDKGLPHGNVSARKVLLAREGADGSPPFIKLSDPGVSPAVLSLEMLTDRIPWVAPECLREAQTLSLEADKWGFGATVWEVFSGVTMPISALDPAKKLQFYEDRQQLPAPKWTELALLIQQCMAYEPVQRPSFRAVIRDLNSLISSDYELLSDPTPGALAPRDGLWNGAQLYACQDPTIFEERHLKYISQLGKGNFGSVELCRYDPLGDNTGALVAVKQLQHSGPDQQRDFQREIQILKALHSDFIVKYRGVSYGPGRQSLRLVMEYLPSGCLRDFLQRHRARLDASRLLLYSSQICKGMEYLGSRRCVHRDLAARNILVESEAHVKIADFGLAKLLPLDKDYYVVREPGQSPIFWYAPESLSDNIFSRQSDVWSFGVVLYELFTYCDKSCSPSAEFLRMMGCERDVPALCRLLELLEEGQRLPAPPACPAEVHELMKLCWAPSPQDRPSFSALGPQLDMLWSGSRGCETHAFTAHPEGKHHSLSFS
# Assay: JAK3 IL-2-NK-92/pSTAT5 cell-based assay (Cellomics ArrayScan HCS)
# From the text: IL-2 activates the JAK3 pathway in natural killer (NK) cells to drive the NK and CD8 lymphocyte proliferation. Therefore, IL-2 stimulated NK92/pSTAT5 cell-based assay enables the evaluation of the JAK3 cellular activity of JAK2 compounds in vitro.
# NK-92 (natural killer) cells (ATCC, Manassas, Va.) are maintained in minimum essential medium (MEM) Alpha with 15% fetal bovine serum, 15% Horse Serum and 1× antibiotic/antimycotic (Invitrogen, Carlsbad, Calif.). The medium is supplemented with IL-2 (R&D systems, Minneapolis, Minn.) for a final concentration of 4 ng/mL. Cells are kept at 37° C. with 5% CO2. Cells are starved in serum free medium to remove endogenous growth factors. NK-92 cells are counted and collected to seed 2×10^7 cells per 96-well plate at a density of 2×10^5 cells per well. The cells are rinsed twice with unsupplemented MEM Alpha (MEM Alpha) before suspending cells at a final concentration of 8×10^5 cells/mL in MEM Alpha with 0.6% serum (0.3% FBS, 0.3% horse serum). […]
# To perform the assay, serum-starved cells are collected and washed once with unsupplemented RPMI 1640 medium. […] An aliquot of 200 μL of 1 to 10 dilution of Mouse anti-pSTAT5 (pY694) Alexa Fluor 647® in fluorescence activated cell sorting (FACS) buffer is added to the cells. […] Mean fluorescent intensity data are collected and analyzed using Cellomics Arrayscan® VTi. […] The MSR is determined to be 2.06. […]
compound,measurement,setting,value
"Cc1cc(Nc2cc(CN3CCOCC3)c3nc(C)c(Cc4ccc(Cl)cc4F)n3n2)n[nH]1 [3-(4-Chloro-2-fluorobenzyl)-2-methyl-N-(5-methyl-1H-pyrazol-3-yl)-8-(morpholinomethyl)imidazo[1,2-b]pyridazin-6-amine]",ratio of JAK3/JAK2 IC50,JAK3 IL2-NK92-pSTAT5 IC50 over JAK2 EPO-TF1/pSTAT5 IC50,28.5 fold
same,IC50,"NK-92 cells, IL-2 0.5 ng/mL stimulated, n=4, read-out: relative IC50, inhibition of pSTAT5",0.94 µM
